{
  "source": "ChEMBL document CHEMBL1149774",
  "about": "“Synthesis of N-(5,7-diamino-3-phenyl-quinoxalin-2-yl)-3,4,5-substituted anilines and N-[4[(5,7-diamino-3-phenylquinoxalin-2-yl)amino]benzoyl]-l-glutamic acid diethyl ester: evaluation of in vitro anti-cancer and anti-folate activities” (Eur J Med Chem, 2008)",
  "key": {"OVCAR-8": {"system": "OVCAR-8", "experiment": "Growth inhibition of human OVCAR8 cells after 48 hrs by SRB staining method", "type": "functional", "conditions": "OVCAR-8, 48 h"}, "RPMI-8226": {"system": "RPMI-8226", "experiment": "Growth inhibition of human RPMI8226 cells after 48 hrs by SRB staining method", "type": "functional", "conditions": "RPMI-8226, 48 h"}, "NCI-H23": {"system": "NCI-H23", "experiment": "Growth inhibition of human NCI-H23 cells after 48 hrs by SRB staining method", "type": "functional", "conditions": "NCI-H23, 48 h"}, "LOX IMVI": {"system": "LOX IMVI", "experiment": "Growth inhibition of human LOX IMVI cells after 48 hrs by SRB staining method", "type": "functional"}, "IGROV-1": {"system": "IGROV-1", "experiment": "Growth inhibition of human IGROV1 cells after 48 hrs by SRB staining method", "type": "functional", "conditions": "IGROV-1, 48 h"}, "SN12C": {"system": "SN12C", "experiment": "Growth inhibition of human SN12C cells after 48 hrs by SRB staining method", "type": "functional"}, "ACHN": {"system": "ACHN", "experiment": "Growth inhibition of human ACHN cells after 48 hrs by SRB staining method", "type": "functional"}, "HOP-92": {"system": "HOP-92", "experiment": "Growth inhibition of human HOP92 cells after 48 hrs by SRB staining method", "type": "functional", "conditions": "HOP-92, 48 h"}, "SK-MEL-2": {"system": "SK-MEL-2", "experiment": "Growth inhibition of human SK-MEL-2 cells after 48 hrs by SRB staining method", "type": "functional", "conditions": "SK-MEL-2, 48 h"}, "K562": {"system": "K562", "experiment": "Growth inhibition of human K562 cells after 48 hrs by SRB staining method", "type": "functional", "conditions": "K562, 48 h"}, "KM12": {"system": "KM12", "experiment": "Growth inhibition of human KM12 cells after 48 hrs by SRB staining method", "type": "functional", "conditions": "KM12, 48 h"}, "SNB-75": {"system": "SNB-75", "experiment": "Growth inhibition of human SNB75 cells after 48 hrs by SRB staining method", "type": "functional", "conditions": "SNB-75, 48 h"}, "SNB-19": {"system": "SNB-19", "experiment": "Growth inhibition of human SNB19 cells after 48 hrs by SRB staining method", "type": "functional", "conditions": "SNB-19, 48 h"}, "Thymidylate synthase": {"biological_target": "T1, Thymidylate synthase (Lactobacillus casei, UniProt P00469)", "T1 sequence (P00469 whole entry)": "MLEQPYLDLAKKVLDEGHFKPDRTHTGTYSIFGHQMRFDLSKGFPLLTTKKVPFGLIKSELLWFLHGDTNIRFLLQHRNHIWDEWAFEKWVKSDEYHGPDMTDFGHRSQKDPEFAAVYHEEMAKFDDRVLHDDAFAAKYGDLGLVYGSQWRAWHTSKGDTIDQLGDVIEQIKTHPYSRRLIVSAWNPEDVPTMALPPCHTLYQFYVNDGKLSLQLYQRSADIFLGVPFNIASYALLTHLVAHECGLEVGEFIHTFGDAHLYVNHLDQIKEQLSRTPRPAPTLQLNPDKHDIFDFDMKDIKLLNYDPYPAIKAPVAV", "description": "Inhibition of Lactobacillus casei thymidylate synthase"}, "SF-268": {"system": "SF-268", "experiment": "Growth inhibition of human SF268 cells after 48 hrs by SRB staining method", "type": "functional", "conditions": "SF-268, 48 h"}, "MOLT-4": {"system": "MOLT-4", "experiment": "Growth inhibition of human MOLT4 cells after 48 hrs by SRB staining method", "type": "functional", "conditions": "MOLT-4, 48 h"}, "PC-3": {"system": "PC-3", "experiment": "Growth inhibition of human PC3 cells after 48 hrs by SRB staining method", "type": "functional", "conditions": "PC-3, 48 h"}, "MDA-MB-231": {"system": "MDA-MB-231", "experiment": "Growth inhibition of human MDA-MB-231 cells after 48 hrs by SRB staining method", "type": "functional", "conditions": "MDA-MB-231, 48 h"}, "[1]": {"biological_target": "T2, Dihydrofolate reductase (Homo sapiens) (UniProt P00374)", "T2 sequence (whole entry)": "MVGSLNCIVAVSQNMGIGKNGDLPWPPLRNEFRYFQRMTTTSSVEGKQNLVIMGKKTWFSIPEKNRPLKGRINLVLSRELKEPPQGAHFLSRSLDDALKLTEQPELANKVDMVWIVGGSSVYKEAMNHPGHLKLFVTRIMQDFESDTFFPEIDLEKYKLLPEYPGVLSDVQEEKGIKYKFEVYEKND", "experiment": "Inhibition of human dihydrofolate reductase at 10 uM"}, "[2]": {"experiment": "Growth inhibition of human HS 578T cells after 48 hrs by SRB staining method", "type": "functional"}, "NCI/ADR-RES": {"system": "NCI/ADR-RES", "experiment": "Growth inhibition of human NCI/ADR-RES cells after 48 hrs by SRB staining method", "type": "functional"}, "A549": {"system": "A549", "experiment": "Growth inhibition of human A549 cells after 48 hrs by SRB staining method", "type": "functional", "conditions": "A549, 48 h"}, "SF-539": {"system": "SF-539", "experiment": "Growth inhibition of human SF539 cells after 48 hrs by SRB staining method", "type": "functional", "conditions": "SF-539, 48 h"}, "UACC-62": {"system": "UACC-62", "experiment": "Growth inhibition of human UACC62 cells after 48 hrs by SRB staining method", "type": "functional", "conditions": "UACC-62, 48 h"}, "BT-549": {"system": "BT-549", "experiment": "Growth inhibition of human BT549 cells after 48 hrs by SRB staining method", "type": "functional", "conditions": "BT-549, 48 h"}, "[3]": {"conditions": "read-out: pLC50 (the source's name) (converted)"}},
  "note": "Active and inactive are the calls of the source. The calls are words filed in the database; no cut-off is given here.",
  "data": [
    {"smiles": "Nc1cc(N)c2nc(-c3ccccc3)c(Nc3ccc(F)cc3)nc2c1", "values": [
      {"measurement": "GI50", "setting": "OVCAR-8", "value": 12.3, "unit": "µM"},
      {"measurement": "CC50", "setting": "OVCAR-8; [3]", "value": 74.1, "unit": "µM"},
      {"measurement": "TGI", "setting": "OVCAR-8; read-out: pTGI (converted)", "value": 30.2, "unit": "µM"},
      {"measurement": "GI50", "setting": "RPMI-8226", "value": 4.68, "unit": "µM"},
      {"measurement": "CC50", "setting": "RPMI-8226; [3]", "value": "> 100", "unit": "µM"},
      {"measurement": "TGI", "setting": "RPMI-8226; read-out: pTGI (converted)", "value": 34.7, "unit": "µM"},
      {"measurement": "GI50", "setting": "NCI-H23", "value": 22.4, "unit": "µM"},
      {"measurement": "TGI", "setting": "NCI-H23; read-out: pTGI (converted)", "value": 49, "unit": "µM"},
      {"measurement": "GI50", "setting": "LOX IMVI", "value": 4.79, "unit": "µM"},
      {"measurement": "TGI", "setting": "LOX IMVI; read-out: pTGI (converted)", "value": 18.2, "unit": "µM"},
      {"measurement": "GI50", "setting": "IGROV-1", "value": 16.6, "unit": "µM"},
      {"measurement": "TGI", "setting": "IGROV-1; read-out: pTGI (converted)", "value": "> 100", "unit": "µM"},
      {"measurement": "GI50", "setting": "SN12C", "value": 15.8, "unit": "µM"},
      {"measurement": "CC50", "setting": "SN12C; [3]", "value": 74.1, "unit": "µM"},
      {"measurement": "TGI", "setting": "SN12C; read-out: pTGI (converted)", "value": 33.9, "unit": "µM"},
      {"measurement": "GI50", "setting": "ACHN", "value": 10.2, "unit": "µM"},
      {"measurement": "CC50", "setting": "ACHN; [3]", "value": 49, "unit": "µM"},
      {"measurement": "TGI", "setting": "ACHN; read-out: pTGI (converted)", "value": 22.4, "unit": "µM"},
      {"measurement": "GI50", "setting": "HOP-92", "value": 13.2, "unit": "µM"},
      {"measurement": "TGI", "setting": "HOP-92; read-out: pTGI (converted)", "value": 43.7, "unit": "µM"},
      {"measurement": "GI50", "setting": "SK-MEL-2", "value": 29.5, "unit": "µM"},
      {"measurement": "TGI", "setting": "SK-MEL-2; read-out: pTGI (converted)", "value": "> 100", "unit": "µM"},
      {"measurement": "GI50", "setting": "K562", "value": 5.01, "unit": "µM"},
      {"measurement": "CC50", "setting": "K562; [3]", "value": "> 100", "unit": "µM"},
      {"measurement": "TGI", "setting": "K562; read-out: pTGI (converted)", "value": "> 100", "unit": "µM"},
      {"measurement": "GI50", "setting": "KM12", "value": 12, "unit": "µM"},
      {"measurement": "TGI", "setting": "KM12; read-out: pTGI (converted)", "value": 29.5, "unit": "µM"},
      {"measurement": "GI50", "setting": "SNB-75", "value": 20.9, "unit": "µM"},
      {"measurement": "TGI", "setting": "SNB-75; read-out: pTGI (converted)", "value": 41.7, "unit": "µM"},
      {"measurement": "GI50", "setting": "SNB-19", "value": 21.9, "unit": "µM"},
      {"measurement": "TGI", "setting": "SNB-19; read-out: pTGI (converted)", "value": 39.8, "unit": "µM"},
      {"measurement": "Ki", "setting": "Thymidylate synthase", "value": 3, "unit": "µM"},
      {"measurement": "GI50", "setting": "SF-268", "value": 13.2, "unit": "µM"},
      {"measurement": "CC50", "setting": "SF-268; [3]", "value": "> 100", "unit": "µM"},
      {"measurement": "TGI", "setting": "SF-268; read-out: pTGI (converted)", "value": 40.7, "unit": "µM"},
      {"measurement": "GI50", "setting": "MOLT-4", "value": "> 100", "unit": "µM"},
      {"measurement": "CC50", "setting": "MOLT-4; [3]", "value": "> 100", "unit": "µM"},
      {"measurement": "TGI", "setting": "MOLT-4; read-out: pTGI (converted)", "value": "> 100", "unit": "µM"},
      {"measurement": "GI50", "setting": "PC-3", "value": 11.7, "unit": "µM"},
      {"measurement": "CC50", "setting": "PC-3; [3]", "value": "> 100", "unit": "µM"},
      {"measurement": "TGI", "setting": "PC-3; read-out: pTGI (converted)", "value": "> 100", "unit": "µM"},
      {"measurement": "GI50", "setting": "MDA-MB-231", "value": 11, "unit": "µM"},
      {"measurement": "CC50", "setting": "MDA-MB-231; [3]", "value": 85.1, "unit": "µM"},
      {"measurement": "TGI", "setting": "MDA-MB-231; read-out: pTGI (converted)", "value": 30.2, "unit": "µM"},
      {"measurement": "Activity", "setting": "[1]", "value": "inactive"},
      {"measurement": "GI50", "setting": "[2]", "value": 19.1, "unit": "µM"},
      {"measurement": "CC50", "setting": "[2]; [3]", "value": "> 100", "unit": "µM"},
      {"measurement": "TGI", "setting": "[2]; read-out: pTGI (converted)", "value": 58.9, "unit": "µM"},
      {"measurement": "GI50", "setting": "NCI/ADR-RES", "value": 24, "unit": "µM"},
      {"measurement": "CC50", "setting": "NCI/ADR-RES; [3]", "value": "> 100", "unit": "µM"},
      {"measurement": "TGI", "setting": "NCI/ADR-RES; read-out: pTGI (converted)", "value": 57.5, "unit": "µM"},
      {"measurement": "GI50", "setting": "A549", "value": 17.4, "unit": "µM"},
      {"measurement": "CC50", "setting": "A549; [3]", "value": "> 100", "unit": "µM"},
      {"measurement": "TGI", "setting": "A549; read-out: pTGI (converted)", "value": 44.7, "unit": "µM"},
      {"measurement": "GI50", "setting": "SF-539", "value": 11, "unit": "µM"},
      {"measurement": "TGI", "setting": "SF-539; read-out: pTGI (converted)", "value": 24.5, "unit": "µM"},
      {"measurement": "GI50", "setting": "UACC-62", "value": 16.2, "unit": "µM"},
      {"measurement": "TGI", "setting": "UACC-62; read-out: pTGI (converted)", "value": 31.6, "unit": "µM"},
      {"measurement": "GI50", "setting": "BT-549", "value": 12, "unit": "µM"},
      {"measurement": "CC50", "setting": "BT-549; [3]", "value": 63.1, "unit": "µM"},
      {"measurement": "TGI", "setting": "BT-549; read-out: pTGI (converted)", "value": 26.9, "unit": "µM"}
    ]}
  ]
}
